Results on six compounds are retold here after patent US9175003B2, “Substituted azoanthracene derivatives and intermediates for preparation thereof” (TransTech Pharma, LLC, priority 2009, dated 2015).

Sequence of human GLP-1 receptor (P43220 24-463): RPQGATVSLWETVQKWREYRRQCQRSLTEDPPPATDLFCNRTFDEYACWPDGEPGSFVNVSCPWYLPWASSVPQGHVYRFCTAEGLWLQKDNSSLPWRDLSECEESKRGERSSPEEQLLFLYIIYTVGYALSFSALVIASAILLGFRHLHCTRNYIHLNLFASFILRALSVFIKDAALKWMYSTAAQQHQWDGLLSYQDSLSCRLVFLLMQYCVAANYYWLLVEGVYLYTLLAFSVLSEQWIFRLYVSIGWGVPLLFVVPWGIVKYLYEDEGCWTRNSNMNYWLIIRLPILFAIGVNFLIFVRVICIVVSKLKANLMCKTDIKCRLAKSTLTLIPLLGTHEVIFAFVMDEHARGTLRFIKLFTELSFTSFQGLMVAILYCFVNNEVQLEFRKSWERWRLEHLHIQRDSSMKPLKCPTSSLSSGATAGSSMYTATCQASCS

The experiment has as its target human GLP-1 receptor (Homo sapiens (Human), UniProt P43220). Particulars: read-out: Mean EC50; cAMP, HTRF detection, 30 min at 37° C., HEK-293 cells expressing cloned human GLP-1 receptor. A general note: TR-FRET usually uses a lanthanide donor and a delayed reading to cut background.
Turning to `Cc1nc(C)c(S(=O)(=O)N2Cc3cc4c(cc3C[C@H]2C(=O)N[C@@H](Cc2ccc(-c3ccc(C#N)cc3)cc2)C(=O)O)OCC(c2ccc(OCc3ccc(Cl)c(Cl)c3)cc2)O4)s1` (stereo in doubt) [Example 130, (S)-3-(4′-Cyano-biphenyl-4-yl)-2-{[(S)-3-[4-(3,4-dichloro-benzyloxy)-phenyl]-7-(2,4-dimethyl-thiazole-5-sulfonyl)-2,3,6,7,8,9-hexahydro-[1,4]dioxino[2,3-g]isoquinoline-8-carbonyl]-amino}-propionic acid], the concentration giving a half-maximal response (EC50) – broadly, the midpoint of the concentration-response curve – came to 111 nM.

As to `Cc1nc(N2CCOCC2)ccc1S(=O)(=O)N1Cc2cc3c(cc2C[C@H]1C(=O)N[C@@H](Cc1ccc(-c2ccc(C#N)cc2)cc1)C(=O)O)OCC(c1ccc(OCc2ccc(Cl)c(Cl)c2)cc1)O3` (stereo in doubt) [Example 133, (S)-3-(4′-Cyano-biphenyl-4-yl)-2-{[(S)-3-[4-(3,4-dichloro-benzyloxy)-phenyl]-7-(2-methyl-6-morpholin-4-yl-pyridine-3-sulfonyl)-2,3,6,7,8,9-hexahydro-[1,4]dioxino[2,3-g]isoquinoline-8-carbonyl]-amino}-propionic acid], the concentration giving a half-maximal response (EC50) worked out at 54 nM. For the compound `CCNc1ccc(S(=O)(=O)N2Cc3cc4c(cc3C[C@H]2C(=O)N[C@@H](Cc2ccc(-c3ccc(C#N)cc3)cc2)C(=O)O)OCC(c2ccc(OCc3ccc(Cl)c(Cl)c3)cc2)O4)c(C)n1` (stereo in doubt) [Example 135, (S)-3-(4′-Cyano-biphenyl-4-yl)-2-{[(S)-3-[4-(3,4-dichloro-benzyloxy)-phenyl]-7-(6-ethylamino-2-methyl-pyridine-3-sulfonyl)-2,3,6,7,8,9-hexahydro-[1,4]dioxino[2,3-g]isoquinoline-8-carbonyl]-amino}-propionic acid], the EC50 stood at 284 nM. Turning to `COCCNc1ccc(S(=O)(=O)N2Cc3cc4c(cc3C[C@H]2C(=O)N[C@@H](Cc2ccc(-c3ccc(C#N)cc3)cc2)C(=O)O)OCC(c2ccc(OCc3ccc(Cl)c(Cl)c3)cc2)O4)c(C)n1` (stereo in doubt) [Example 136, (S)-3-(4′-Cyano-biphenyl-4-yl)-2-({(S)-3-[4-(3,4-dichloro-benzyloxy)-phenyl]-7-[6-(2-methoxy-ethylamino)-2-methyl-pyridine-3-sulfonyl]-2,3,6,7,8,9-hexahydro-[1,4]dioxino[2,3-g]isoquinoline-8-carbonyl}-amino)-propionic acid], the EC50 turned out to be 50 nM.

Take `CC(=O)Nc1nc(-c2ccc(S(=O)(=O)N3Cc4cc5c(cc4C[C@H]3C(=O)N[C@@H](Cc3ccc(-c4ccc(C#N)cc4)cc3)C(=O)O)OCC(c3ccc(OCc4ccc(Cl)c(Cl)c4)cc3)O5)cc2)cs1` (stereo in doubt) [Example 138, (S)-2-({(S)-7-[4-(2-Acetylamino-thiazol-4-yl)-benzenesulfonyl]-3-[4-(3,4-dichloro-benzyloxy)-phenyl]-2,3,6,7,8,9-hexahydro-[1,4]dioxino[2,3-g]isoquinoline-8-carbonyl}-amino)-3-(4′-cyano-biphenyl-4-yl)-propionic acid]: the EC50 stood at 241 nM. As for `N#Cc1ccc(-c2ccc(C[C@H](NC(=O)[C@@H]3Cc4cc5c(cc4CN3S(=O)(=O)c3ccc(-c4csc(N)n4)cc3)OC(c3ccc(OCc4ccc(Cl)c(Cl)c4)cc3)CO5)C(=O)O)cc2)cc1` (stereo in doubt) [Example 139, (S)-2-({(S)-7-[4-(2-Amino-thiazol-4-yl)-benzenesulfonyl]-3-[4-(3,4-dichloro-benzyloxy)-phenyl]-2,3,6,7,8,9-hexahydro-[1,4]dioxino[2,3-g]isoquinoline-8-carbonyl}-amino)-3-(4′-cyano-biphenyl-4-yl)-propionic acid], the figure is 85 nM.
